Experimental data as given in publication PMC6825221, “In silico re-engineering of a neurotransmitter to activate KCNQ potassium channels in an isoform-specific manner” (Communications Biology, 2019).
“Also recorded” adds a separate entry of the source.

Key:
Type in all cases: cell-based
KCNQ4 = KCNQ4 (Homo sapiens, UniProt P56696); experiment: TEVC of homomeric KCNQ4 expressed in Xenopus oocytes; conditions: dose response
Excerpt: (§1) We generated cRNA transcripts encoding human KCNQ1, KCNQ2, KCNQ3, KCNQ4, KCNQ5 or GLRA1 (NM_001146040) (GenScript, Piscataway, NJ, USA) by in vitro transcription using the T7 polymerase mMessage mMachine kit (Thermo Fisher Scientific), after vector linearization, from cDNA sub-cloned into plasmids incorporating Xenopus laevis β-globin 5′ and 3′ UTRs flanking the coding region to enhance translation and cRNA stability. We quantified cRNA by spectrophotometry. We generated mutant KCNQ2 and KCNQ3 cDNAs by site-directed mutagenesis using a QuikChange kit (Stratagene, San Diego, CA) and prepared the corresponding cRNAs as above. We injected defolliculated stage V and VI Xenopus laevis oocytes (Ecocyte Bioscience, Austin, TX and Xenoocyte, Dexter, MI) with KCNQ channel α subunit (5-20 ng) or GLRA1 (20 ng) cRNAs. We incubated the oocytes at 16 °C in Barth’s saline solution (Ecocyte Bioscience) containing penicillin and streptomycin, with daily washing, for 2–5 days prior to two-electrode voltage-clamp (TEVC) recording.
We performed TEVC at room temperature using an OC-725C amplifier (Warner Instruments, Hamden, CT) and pClamp10 software (Molecular Devices, Sunnyvale, CA) 2–5 days after cRNA injection as described in the section above. For recording, oocytes were placed in a small-volume oocyte bath (Warner) and viewed them with a dissection microscope. Chemicals were sourced from Sigma, Matrix Scientific and Santa Cruz. […] All stock solutions were diluted in bath solution on the day of experiments. KCNQ2/3 channel activation was screened for using either 30 µM or 100 µM concentrations of each of the six compounds, then dose responses were conducted as appropriate. Bath solution was (in mM): 96 NaCl, 4 KCl, 1 MgCl2, 1 CaCl2, 10 HEPES (pH 7.6). Compounds were introduced into the oocyte recording bath by gravity perfusion at a constant flow of 1 ml per minute for 3 min prior to recording. Pipettes were of 1–2 MΩ resistance when filled with 3 M KCl. Currents were recorded in response to voltage pulses between −120 or −80 mV and + 40 mV at 20 mV intervals from a holding potential of −80 mV, to yield current-voltage relationships, current magnitude, and for quantifying activation rate. We analyzed data using Clampfit (Molecular Devices) and Graphpad Prism software (GraphPad, San Diego, CA, USA); values are stated as mean ± SEM. We plotted raw or normalized tail currents versus prepulse voltage and fitted with a single Boltzmann function:1 g=(A1−A2)/1+exp(V12−V)∕VS+A2, where g is the normalized tail conductance, A1 is the initial value at −∞, A2 is the final value at +∞, V1/2 is the half-maximal voltage of activation and Vs the slope factor. Activation, deactivation, wash-in and washout kinetics were fitted with single exponential functions to yield a τ value.

KCNQ2-R213A/KCNQ3-R242A = KCNQ2-R213A/KCNQ3-R242A (Homo sapiens, UniProt O43525+O43526, R213A/R242A); experiment: TEVC of RA/RA mutant KCNQ2/3; conditions: GABA up to 1 mM
Excerpt: as §1, with “We generated mutant KCNQ2 and KCNQ3 cDNAs by site-directed mutagenesis using a QuikChange kit (Stratagene, San Diego, CA) and prepared the corresponding cRNAs as above.” left out
For recording, oocytes were placed in a small-volume oocyte bath (Warner) and viewed them with a dissection microscope. […] Currents were recorded in response to voltage pulses between −120 or −80 mV and + 40 mV at 20 mV intervals from a holding potential of −80 mV, to yield current-voltage relationships, current magnitude, and for quantifying activation rate. We analyzed data using Clampfit (Molecular Devices) and Graphpad Prism software (GraphPad, San Diego, CA, USA); values are stated as mean ± SEM. […]

KCNQ2/KCNQ3-W265L = KCNQ2/KCNQ3-W265L (Homo sapiens, UniProt O43525+O43526, W265L); experiment: TEVC of KCNQ2/3 with KCNQ3-W265L mutation
Excerpt: We generated cRNA transcripts encoding human KCNQ1, KCNQ2, KCNQ3, KCNQ4, KCNQ5 or GLRA1 (NM_001146040) (GenScript, Piscataway, NJ, USA) by in vitro transcription using the T7 polymerase mMessage mMachine kit (Thermo Fisher Scientific), after vector linearization, from cDNA sub-cloned into plasmids incorporating Xenopus laevis β-globin 5′ and 3′ UTRs flanking the coding region to enhance translation and cRNA stability. We quantified cRNA by spectrophotometry. We generated mutant KCNQ2 and KCNQ3 cDNAs by site-directed mutagenesis using a QuikChange kit (Stratagene, San Diego, CA) and prepared the corresponding cRNAs as above. […]
We performed TEVC at room temperature using an OC-725C amplifier (Warner Instruments, Hamden, CT) and pClamp10 software (Molecular Devices, Sunnyvale, CA) 2–5 days after cRNA injection as described in the section above. […] Currents were recorded in response to voltage pulses between −120 or −80 mV and + 40 mV at 20 mV intervals from a holding potential of −80 mV, to yield current-voltage relationships, current magnitude, and for quantifying activation rate. We analyzed data using Clampfit (Molecular Devices) and Graphpad Prism software (GraphPad, San Diego, CA, USA); values are stated as mean ± SEM. […]

effects on KCNQ4 (KCNQ4): negligible or much less potent effects
activation / sensitivity of RA/RA mutant KCNQ2/3 (KCNQ2-R213A/KCNQ3-R242A): larger reduction in sensitivity
Structure (SMILES): CS(=O)(=O)N(CC(=O)O)c1cccc(F)c1 [3FMSG]
effect of the KCNQ3-W265L mutation within KCNQ2/3 (KCNQ2/KCNQ3-W265L): dependent on KCNQ3-W265; also recorded: eliminated effects of 3FMSG
